Reference: ChEMBL document CHEMBL5528056, “BAY-9835: Discovery of the First Orally Bioavailable ADAMTS7 Inhibitor” (J Med Chem, 2024)
Converted amounts (≈) assume the structure as drawn.

Experiments:
[1] = Solubility of compound in water at pH 7 measured after 24 hrs by HPLC analysis; type: physicochemical; details: buffer, pH 7, 24 h
Cytochrome P450 2D6 = Cytochrome P450 2D6 (Homo sapiens, UniProt P10635); test: Inhibition of CYP2D6 in human liver microsomes using dextromethorphan as substrate upto 20 uM by LC-MS/MS analysis; type: ADME, Microsome
[2] = Selectivity ratio of IC50 for ADAMTS12 (unknown origin) to IC50 for ADAMTS7 (unknown origin)
[3] = Selectivity ratio of IC50 for C-terminal 6His-tagged recombinant human ADAM8 (1 to 497 residues) using Dabcyl-SSNQLQRR-Glu(EDANS)-NH2 as substrate to IC50 for ADAMTS7 (unknown origin)
[4] = target: Voltage-dependent L-type calcium channel subunit alpha-1C (Homo sapiens, UniProt Q13936); test: Inhibition of hCaV1.2 upto 10 uM by voltage clamp method; type: toxicity
[5] = Oral bioavailability in Wistar rat at 1 mg/kg measured for >24 hrs by HPLC-MS/MS analysis; type: ADME, organism-based; details: in vivo
[6] = Half life in Beagle dog at 0.3 mg/kg, iv measured for >24 hrs by HPLC-MS/MS analysis; type: ADME, organism-based, Canis lupus familiaris; details: in vivo
[7] = Lipophilicity, logD of compound at pH 7.5; type: physicochemical; details: buffer
[8] = Solubility of compound in FeSSIF measured after 24 hrs by HPLC analysis; type: ADME; details: simulated gi fluid
[9] = Dose normalized AUC in Wistar rat at 0.3 mg/kg, iv measured for >24 hrs by HPLC-MS/MS analysis; type: ADME, organism-based; details: in vivo
[10] = Fraction unbound in rat plasma; type: ADME, cell-free
[11] = Selectivity ratio of IC50 for ADAMTS5 (unknown origin) to IC50 for ADAMTS7 (unknown origin)
[12] = Fraction unbound in mouse plasma; type: ADME, cell-free
[13] = Half life in Wistar rat at 0.3 mg/kg, iv measured for >24 hrs by HPLC-MS/MS analysis; type: ADME, organism-based; details: in vivo
[14] = Tmax in C57bl6 mouse at 1 mg/kg, po measured for >24 hrs by HPLC-MS/MS analysis; type: ADME, organism-based; details: in vivo
Cytochrome P450 2C8 [15] = target: T1, Cytochrome P450 2C8 (Homo sapiens, UniProt P10632); test: Inhibition of CYP2C8 in human liver microsomes using amodiaquin as substrate upto 20 uM by LC-MS/MS analysis; type: ADME, Microsome
T1 sequence (P10632 whole entry): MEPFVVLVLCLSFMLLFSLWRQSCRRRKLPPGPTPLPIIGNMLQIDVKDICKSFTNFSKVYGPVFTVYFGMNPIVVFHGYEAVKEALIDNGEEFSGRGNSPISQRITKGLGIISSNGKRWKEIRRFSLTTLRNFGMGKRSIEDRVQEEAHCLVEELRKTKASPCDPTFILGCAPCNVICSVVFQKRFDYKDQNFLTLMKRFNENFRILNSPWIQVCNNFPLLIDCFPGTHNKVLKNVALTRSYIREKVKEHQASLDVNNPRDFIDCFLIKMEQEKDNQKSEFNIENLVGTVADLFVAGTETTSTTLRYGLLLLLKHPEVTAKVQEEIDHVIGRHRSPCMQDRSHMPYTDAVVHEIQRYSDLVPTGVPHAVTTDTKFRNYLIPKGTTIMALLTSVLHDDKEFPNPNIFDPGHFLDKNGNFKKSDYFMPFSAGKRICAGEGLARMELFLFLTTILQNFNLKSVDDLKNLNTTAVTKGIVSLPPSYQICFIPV

Cytochrome P450 2C8 [16] = target: T1, Cytochrome P450 2C8; test: Inhibition of CYP2C8 in human liver microsomes using diclofenac as substrate upto 20 uM by LC-MS/MS analysis; type: ADME, Microsome
[17] = Clearance in Wistar rat at 0.3 mg/kg, iv measured for >24 hrs by HPLC-MS/MS analysis; type: ADME, organism-based; details: in vivo
[18] = Dose normalized AUC in Beagle dog at 1 mg/kg, po measured for >24 hrs by HPLC-MS/MS analysis; type: ADME, organism-based, Canis lupus familiaris; details: in vivo
[19] = Half life in Wistar rat at 1 mg/kg, po measured for >24 hrs by HPLC-MS/MS analysis; type: ADME, organism-based; details: in vivo
[20] = Fraction unbound in dog plasma; type: ADME, cell-free, Canis lupus familiaris
[21] = Oral bioavailability in Beagle dog at 1 mg/kg measured for >24 hrs by HPLC-MS/MS analysis; type: ADME, organism-based, Canis lupus familiaris; details: in vivo
[22] = Half life in C57bl6 mouse at 1 mg/kg, po measured for >24 hrs by HPLC-MS/MS analysis; type: ADME, organism-based; details: in vivo
[23] = Selectivity ratio of IC50 for MMP12 (unknown origin) to IC50 for ADAMTS7 (unknown origin)
[24] = Half life in C57bl6 mouse at 0.3 mg/kg, iv measured for >24 hrs by HPLC-MS/MS analysis; type: ADME, organism-based; details: in vivo
[25] = Dose normalized AUC in Beagle dog at 0.3 mg/kg, iv measured for >24 hrs by HPLC-MS/MS analysis; type: ADME, organism-based, Canis lupus familiaris; details: in vivo
[26] = Clearance in C57bl6 mouse at 0.3 mg/kg, iv measured for >24 hrs by HPLC-MS/MS analysis; type: ADME, organism-based; details: in vivo
[27] = Clearance in iv-dosed Wistar rat measured after 24 hrs by HPLC-MS/MS analysis; type: ADME; details: in vivo
[28] = Dose normalized AUC in C57bl6 mouse at 1 mg/kg, po measured for >24 hrs by HPLC-MS/MS analysis; type: ADME, organism-based; details: in vivo
[29] = Solubility of compound in FaSSIF measured after 24 hrs by HPLC analysis; type: ADME; details: simulated gi fluid
[30] = Oral bioavailability in C57bl6 mouse at 1 mg/kg measured for >24 hrs by HPLC-MS/MS analysis; type: ADME, organism-based; details: in vivo
[31] = target: Sodium channel protein type 5 subunit alpha (Homo sapiens, UniProt Q14524); test: Inhibition of hNaV1.5 upto 10 uM by voltage clamp method; type: toxicity
[32] = Selectivity ratio of IC50 for MMP2 (unknown origin) to IC50 for ADAMTS7 (unknown origin)
Cytochrome P450 1A2 = target: T2, Cytochrome P450 1A2 (Homo sapiens, UniProt P05177); test: Inhibition of CYP1A2 in human liver microsomes using phenacetin as substrate upto 20 uM by LC-MS/MS analysis; type: ADME, Microsome
T2 sequence (P05177 whole entry): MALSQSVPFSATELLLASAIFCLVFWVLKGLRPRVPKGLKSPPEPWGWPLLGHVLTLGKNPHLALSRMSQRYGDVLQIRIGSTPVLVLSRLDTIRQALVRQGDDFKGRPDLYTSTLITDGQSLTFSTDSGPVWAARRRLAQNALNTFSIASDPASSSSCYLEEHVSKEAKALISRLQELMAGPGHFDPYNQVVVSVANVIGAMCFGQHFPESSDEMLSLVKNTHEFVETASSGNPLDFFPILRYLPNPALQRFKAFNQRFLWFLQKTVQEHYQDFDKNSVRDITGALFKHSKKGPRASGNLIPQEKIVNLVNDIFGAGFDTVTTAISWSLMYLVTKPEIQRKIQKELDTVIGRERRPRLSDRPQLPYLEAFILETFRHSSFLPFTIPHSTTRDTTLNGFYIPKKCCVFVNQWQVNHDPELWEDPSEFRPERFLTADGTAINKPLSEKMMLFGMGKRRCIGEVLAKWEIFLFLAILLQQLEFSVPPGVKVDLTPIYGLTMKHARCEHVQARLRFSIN

Voltage-dependent L-type calcium channel subunit alpha-1C, sequence (Q13936 whole entry): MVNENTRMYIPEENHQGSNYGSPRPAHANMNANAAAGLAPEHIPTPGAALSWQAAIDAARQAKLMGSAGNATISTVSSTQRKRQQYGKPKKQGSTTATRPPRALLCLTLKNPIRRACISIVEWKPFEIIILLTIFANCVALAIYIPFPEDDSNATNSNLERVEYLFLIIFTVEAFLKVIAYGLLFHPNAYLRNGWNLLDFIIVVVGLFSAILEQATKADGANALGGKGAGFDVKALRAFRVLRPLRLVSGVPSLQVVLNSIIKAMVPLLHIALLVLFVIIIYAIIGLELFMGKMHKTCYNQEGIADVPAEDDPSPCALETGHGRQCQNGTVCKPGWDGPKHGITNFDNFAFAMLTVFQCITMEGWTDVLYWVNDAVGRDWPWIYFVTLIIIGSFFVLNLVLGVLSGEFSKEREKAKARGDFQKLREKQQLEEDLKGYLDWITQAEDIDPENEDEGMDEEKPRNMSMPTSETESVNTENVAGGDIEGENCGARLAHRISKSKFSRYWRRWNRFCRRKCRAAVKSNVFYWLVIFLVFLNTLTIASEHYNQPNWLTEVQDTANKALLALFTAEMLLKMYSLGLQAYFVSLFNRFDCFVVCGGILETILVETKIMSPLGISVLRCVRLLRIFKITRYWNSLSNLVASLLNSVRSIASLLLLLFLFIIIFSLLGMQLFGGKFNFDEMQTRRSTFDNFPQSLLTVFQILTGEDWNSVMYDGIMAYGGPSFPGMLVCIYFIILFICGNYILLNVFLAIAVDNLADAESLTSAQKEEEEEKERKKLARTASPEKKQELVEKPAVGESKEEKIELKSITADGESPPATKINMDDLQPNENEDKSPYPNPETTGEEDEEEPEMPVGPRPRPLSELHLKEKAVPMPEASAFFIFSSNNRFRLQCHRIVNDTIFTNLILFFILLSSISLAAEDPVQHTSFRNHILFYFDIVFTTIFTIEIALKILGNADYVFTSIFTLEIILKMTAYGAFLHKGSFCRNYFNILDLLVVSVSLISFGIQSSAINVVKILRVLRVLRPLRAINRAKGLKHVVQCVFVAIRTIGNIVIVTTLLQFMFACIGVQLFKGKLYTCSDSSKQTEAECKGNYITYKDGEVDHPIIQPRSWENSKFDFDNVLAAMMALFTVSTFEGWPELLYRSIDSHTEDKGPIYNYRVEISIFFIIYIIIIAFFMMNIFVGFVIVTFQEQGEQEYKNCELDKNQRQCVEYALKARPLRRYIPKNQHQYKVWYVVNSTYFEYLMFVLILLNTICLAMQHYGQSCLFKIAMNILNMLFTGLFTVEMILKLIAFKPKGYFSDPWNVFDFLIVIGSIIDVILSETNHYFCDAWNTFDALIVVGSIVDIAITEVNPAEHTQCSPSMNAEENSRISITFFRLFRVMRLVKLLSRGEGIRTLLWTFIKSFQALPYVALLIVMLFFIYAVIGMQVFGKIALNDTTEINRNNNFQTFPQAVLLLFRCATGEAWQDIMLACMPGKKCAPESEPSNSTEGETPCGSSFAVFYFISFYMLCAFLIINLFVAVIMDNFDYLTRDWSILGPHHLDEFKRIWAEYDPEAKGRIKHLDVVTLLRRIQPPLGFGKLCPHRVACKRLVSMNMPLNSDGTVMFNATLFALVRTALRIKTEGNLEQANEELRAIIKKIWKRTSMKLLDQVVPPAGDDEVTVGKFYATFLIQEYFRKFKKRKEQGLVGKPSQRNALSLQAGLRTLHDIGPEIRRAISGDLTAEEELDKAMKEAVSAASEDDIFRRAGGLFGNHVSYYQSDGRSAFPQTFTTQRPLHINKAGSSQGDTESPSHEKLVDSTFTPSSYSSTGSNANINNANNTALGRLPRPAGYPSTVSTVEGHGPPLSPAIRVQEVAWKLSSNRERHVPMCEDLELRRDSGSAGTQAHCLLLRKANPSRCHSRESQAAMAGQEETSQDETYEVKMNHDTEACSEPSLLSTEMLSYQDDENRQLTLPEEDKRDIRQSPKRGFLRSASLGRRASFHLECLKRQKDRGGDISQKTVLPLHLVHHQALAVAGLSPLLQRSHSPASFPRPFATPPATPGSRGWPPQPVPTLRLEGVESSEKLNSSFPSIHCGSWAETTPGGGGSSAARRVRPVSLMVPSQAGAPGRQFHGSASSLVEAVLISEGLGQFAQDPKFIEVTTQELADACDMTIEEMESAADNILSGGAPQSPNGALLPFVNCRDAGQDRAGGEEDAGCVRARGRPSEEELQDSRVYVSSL
Sodium channel protein type 5 subunit alpha, sequence (Q14524 whole entry): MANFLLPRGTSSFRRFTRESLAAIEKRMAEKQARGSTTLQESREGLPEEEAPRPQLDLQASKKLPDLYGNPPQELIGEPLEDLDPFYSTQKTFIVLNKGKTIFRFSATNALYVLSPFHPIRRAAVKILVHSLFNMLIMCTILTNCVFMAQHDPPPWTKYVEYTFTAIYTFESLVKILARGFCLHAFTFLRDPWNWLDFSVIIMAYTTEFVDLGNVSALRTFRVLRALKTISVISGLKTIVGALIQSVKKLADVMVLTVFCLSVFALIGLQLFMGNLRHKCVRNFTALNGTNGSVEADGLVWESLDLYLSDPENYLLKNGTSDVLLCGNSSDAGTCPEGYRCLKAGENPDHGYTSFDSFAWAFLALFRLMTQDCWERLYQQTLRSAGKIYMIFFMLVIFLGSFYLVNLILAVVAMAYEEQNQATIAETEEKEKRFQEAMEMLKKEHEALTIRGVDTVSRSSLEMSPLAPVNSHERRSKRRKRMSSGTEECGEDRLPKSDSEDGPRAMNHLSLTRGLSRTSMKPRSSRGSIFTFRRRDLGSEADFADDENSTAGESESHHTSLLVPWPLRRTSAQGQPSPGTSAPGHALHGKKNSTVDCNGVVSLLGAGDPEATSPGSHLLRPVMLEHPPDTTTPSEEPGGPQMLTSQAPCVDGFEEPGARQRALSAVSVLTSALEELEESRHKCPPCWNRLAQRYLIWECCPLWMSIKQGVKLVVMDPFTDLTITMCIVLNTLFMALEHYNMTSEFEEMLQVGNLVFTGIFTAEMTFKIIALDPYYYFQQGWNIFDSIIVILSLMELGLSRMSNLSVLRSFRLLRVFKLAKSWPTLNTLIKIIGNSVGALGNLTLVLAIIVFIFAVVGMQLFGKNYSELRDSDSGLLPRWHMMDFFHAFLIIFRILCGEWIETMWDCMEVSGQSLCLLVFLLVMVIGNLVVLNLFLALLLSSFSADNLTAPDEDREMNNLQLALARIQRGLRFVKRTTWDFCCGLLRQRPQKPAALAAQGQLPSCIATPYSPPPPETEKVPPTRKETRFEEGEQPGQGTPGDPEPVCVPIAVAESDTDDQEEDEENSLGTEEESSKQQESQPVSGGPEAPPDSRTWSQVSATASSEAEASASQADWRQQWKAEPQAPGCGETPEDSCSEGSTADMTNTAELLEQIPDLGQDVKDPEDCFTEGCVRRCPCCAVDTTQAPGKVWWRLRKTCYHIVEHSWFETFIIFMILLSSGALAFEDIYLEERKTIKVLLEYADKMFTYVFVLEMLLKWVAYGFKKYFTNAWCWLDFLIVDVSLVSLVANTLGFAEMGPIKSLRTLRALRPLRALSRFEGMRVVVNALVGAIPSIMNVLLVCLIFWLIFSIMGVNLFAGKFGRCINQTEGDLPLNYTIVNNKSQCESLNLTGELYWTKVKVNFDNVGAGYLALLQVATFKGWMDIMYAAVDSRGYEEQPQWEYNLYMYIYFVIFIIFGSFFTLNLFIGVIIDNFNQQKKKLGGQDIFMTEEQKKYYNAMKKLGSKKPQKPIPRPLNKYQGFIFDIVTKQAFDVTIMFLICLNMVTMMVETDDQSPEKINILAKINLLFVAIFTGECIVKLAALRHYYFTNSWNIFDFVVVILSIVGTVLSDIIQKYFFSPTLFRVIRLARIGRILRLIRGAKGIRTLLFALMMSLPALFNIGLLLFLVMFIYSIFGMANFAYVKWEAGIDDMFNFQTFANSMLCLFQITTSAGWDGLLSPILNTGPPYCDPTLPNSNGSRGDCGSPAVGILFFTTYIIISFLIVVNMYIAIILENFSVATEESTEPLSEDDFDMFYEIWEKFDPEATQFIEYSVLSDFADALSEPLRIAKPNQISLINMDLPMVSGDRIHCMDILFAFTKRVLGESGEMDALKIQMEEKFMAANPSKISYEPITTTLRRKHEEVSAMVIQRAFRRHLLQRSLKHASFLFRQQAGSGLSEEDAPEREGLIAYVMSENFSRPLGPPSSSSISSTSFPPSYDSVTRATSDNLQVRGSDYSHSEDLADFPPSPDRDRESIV
Cytochrome P450 2D6, sequence (P10635 whole entry): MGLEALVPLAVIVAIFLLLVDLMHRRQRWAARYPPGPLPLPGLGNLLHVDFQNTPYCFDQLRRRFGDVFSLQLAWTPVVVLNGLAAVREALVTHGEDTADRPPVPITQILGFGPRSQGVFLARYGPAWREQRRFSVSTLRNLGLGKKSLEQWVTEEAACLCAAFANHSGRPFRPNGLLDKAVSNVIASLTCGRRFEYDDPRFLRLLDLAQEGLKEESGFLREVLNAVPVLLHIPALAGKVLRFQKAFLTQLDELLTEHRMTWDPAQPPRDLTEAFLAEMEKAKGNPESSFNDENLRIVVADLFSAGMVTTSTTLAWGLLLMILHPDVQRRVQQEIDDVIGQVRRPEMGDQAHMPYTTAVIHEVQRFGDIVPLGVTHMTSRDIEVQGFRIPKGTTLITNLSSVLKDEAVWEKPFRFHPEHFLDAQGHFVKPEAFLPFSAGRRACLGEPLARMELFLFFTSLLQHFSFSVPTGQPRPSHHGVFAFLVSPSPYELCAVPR

In the case of Cn1nccc1[C@]1(CNC(=O)c2ccc(F)c(F)c2-c2ccc(C(F)(F)F)cc2)NC(=O)NC1=O, the solubility [1] is reported as 135 µg/mL (≈ 274 µM), the “inhibition (INH)” value (Cytochrome P450 2D6) is reported as “Not Active” and the Ratio IC50 [2] is reported as 5. The Ratio IC50 [3] was 375, the “inhibition (INH)” value [4] was “Not Active” and the F [5] was 96%. The t1/2 [6] was 22 h, the logD [7] was 3.2 and the solubility [8] was 513 µg/mL (≈ 1040 µM). The AUC/dose [9] was 3.1 kg·h/L, the Fu [10] was 5% and the Ratio IC50 [11] was 1650. The Fu [12] was 11%, the t1/2 [13] was 3.6 h and the Tmax [14] was 1 h. The “inhibition (INH)” value (Cytochrome P450 2C8 [15]) was “Not Active”, the “inhibition (INH)” value (Cytochrome P450 2C8 [16]) was “Not Active” and the CL [17] was 9.17 mL/min/kg. The AUC/dose [18] was 68 kg·h/L, the t1/2 [19] was 3.7 h and the Fu [20] was 5%. The F [21] was 77%, the t1/2 [22] was 2.5 h and the Ratio IC50 [23] was 896. The t1/2 [24] was 2.1 h, the AUC/dose [25] was 88 kg·h/L and the CL [26] was 18.3 mL/min/kg. It also gave a CL [27] of 10 mL/min/kg, an AUC/dose [28] of 2 kg·h/L and a solubility [29] of 297 µg/mL (≈ 602 µM). For the same molecule, the bioavailability [30] was 100%, the “inhibition (INH)” value [31] was “Not Active” and the Ratio IC50 [32] was 17300. The “inhibition (INH)” value (Cytochrome P450 1A2) was “Not Active”.
